One experiment has as its system human A549 cells. The experiment can be described thus: Protective effect against cell injury induced by oxidized LDL in human A549 cells (LDH leakage). It is filed as cell-based. The settings on record: for inhibition at 3 µM / inhibition at 30 µM: Homo sapiens, oxidized LDL 100 μg/mL, 24 hours, average ± standard error; for inhibition at 3 µM: 3 μmol/L test compound; for inhibition at 30 µM: 30 μmol/L test compound; for % cell protection as a function of test compound concentration (FIG. 1): test compound added immediately before oxidized LDL, Test Example 2. On the procedure:
(§1) Oxidized LDL was prepared by maintaining 1 mg/mL of rabbit LDL at 37° C for 24 hours in PBS (-) containing 10 μmol/L CUSO4.
Human A549 cells used in this test are available under accession number ATCC-CCL-185 and have the properties of type II alveolar epithelial cells (Lieber M, Smith B, Szakal A, Nelson-Rees W, Todaro G., A continuous tumor-cell line from a human lung carcinoma with properties of type II alveolar epithelial cells. Int J Cancer Jan. 15, 1976; 17(1):62-70).
(§2) These cells were dispersed in F12K medium containing 10% FBS and plated on a 24-well plate at 2.5×10^4 cells/500 μL/well. These cells were incubated at 37° C. for 18 hours and then the medium was replaced by F12K medium containing 2% FBS. At this time, 2.5 μL of a solution or a suspension of each test compound in ethanol was added at the concentrations of the test compound of 3 μmol/L and 30 μmol/L in each well.
(§3) After incubation at 37° C. for 6 hours, 50 μL of a suspension of oxidized LDL was added per well at the concentration of oxidized LDL of 100 μg/mL in each well.
(§4) After incubation at 37° C. for 24 hours, 200 μL of the supernatant was collected from each well and the amount of lactate dehydrogenase (LDH) leaked from cells was determined by the SFBC method.
(§5) Further test was carried out in the same manner as the above test with the exception that each test compound was added to the cell culture after incubation for 6 hours following medium replacement and immediately before oxidized LDL was added thereto rather than when the medium was replaced with F12K medium containing 2% FBS.
(§6) Higher LDH levels in the supernatant indicate that greater cell injury is induced by oxidized LDL. Separately, one experiment was carried out using a well in the same manner as the above test with the exception that no test compound was added to the well. The level of LDH in this well was defined as 0% cell protection. In addition, other experiment was carried out using another well without adding either test compound or oxidized LDL but with adding saline instead. The level of LDH in this well was defined as 100% cell protection. These levels of LDH were used for calculating cell protection of each test compound used in the above test.
Probucol and α-tocopherol were tested for comparison with the compounds of the present invention. In this test, the test compounds were added to the cell culture after incubation for 6 hours following medium replacement and immediately before oxidized LDL was added.
In general terms: LDH leaks from cells whose membrane has failed.

For experiment [1], the system named is normal human bronchial/tracheal epithelial cells (NHBE w/RA). The experiment can be described thus: Protective effect against cell injury induced by oxidized LDL in normal human bronchial/tracheal epithelial cells (LDH leakage). It is filed as cell-based. The settings on record: 24 h, average ± standard error; for inhibition at 3 µM: 3 μmol/L test compound; for inhibition at 30 µM: 30 μmol/L test compound. On the procedure:
as §1, §2, §3, §4, §5, §6
This test example was carried out in a similar manner to test example 1 except that human A549 cells were replaced with normal human bronchial/tracheal epithelial cells (NHBE w/RA: BioWhittaker Co.), cell culture medium was changed from F12K medium containing 10% FBS to BEGM® medium, and the replacement of medium was not made.

[2] abbreviates: read-out: % Cell protection in the case where oxidized LDL was added 6 hrs after adding test compound.
[3] abbreviates: read-out: % Cell protection in the case where oxidized LDL was added immediately after adding test compound.

The values that follow come from patent publication US20050159476A1, “Pharmaceutical composition for preventing or treating respiratory disease” (Chugai Seiyaku Kabushiki Kaisha, priority 2002, published 2005).

Molecules are shown by their SMILES. Like-named read-outs stand apart in the source and are kept apart here.

Consider `CC1(CN)Cc2c(cc(C(C)(C)C)c(O)c2C(C)(C)C)O1` (stereo not drawn) [Compound 5, 2-aminomethyl-4,6-di-t-butyl-5-hydroxy-2-methyl-2,3-dihydrobenzofuran], for which the inhibition at 3 µM is 6.4 ± 0.8% with human A549 cells (setting [2]), 6.9 ± 3.1% with human A549 cells (setting [3]), 6.3 ± 4.5% in experiment [1] (setting [2]) and 0.8 ± 4.6% in experiment [1] (setting [3]). The inhibition at 30 µM in the experiment with human A549 cells (setting [2]) amounted to 96.5 ± 0.5%; with human A549 cells (setting [3]) it was 97.1 ± 0.8%; in experiment [1] (setting [2]), 33.6 ± 1.8%; in experiment [1] (setting [3]), 48.3 ± 8.1%.
Consider `CCCCCC1(CCCCC)Cc2c(cc(C)c(O)c2C)O1` [Compound 17, 4,6-dimethyl-2,2-di-n-pentyl-5-hydroxy-2,3-dihydrobenzofuran], for which the inhibition at 3 µM in the experiment with human A549 cells (setting [2]) stood at 97.8 ± 1.4%; in the experiment with human A549 cells (setting [3]) it was 97.7 ± 1.1%; in experiment [1] (setting [2]) it was 44.8 ± 5.9%; in experiment [1] (setting [3]) it was 51 ± 5%. In addition, the figures for the inhibition at 30 µM (with human A549 cells (setting [3]); in experiment [1] (setting [3])) were 98.1 ± 3.6% and 57.6 ± 0.6%, respectively.
For the molecule `CC(C)(C)c1cc2c(c(C(C)(C)C)c1O)CC(Cc1ccccc1)(Cc1ccccc1)O2` [Compound 4, 4,6-di-t-butyl-2,2-dibenzyl-5-hydroxy-2,3-dihydrobenzofuran], the inhibition at 3 µM in the experiment on human A549 cells (setting [2]) amounted to 6.1 ± 2.5%; with human A549 cells (setting [3]) it was 5.3 ± 2.5%; in experiment [1] (setting [2]) it was 12.3 ± 4.3%; in experiment [1] (setting [3]), 9.1 ± 2.3%. The inhibition at 30 µM with human A549 cells (setting [2]) amounted to 94.1 ± 0.4%; in the experiment with human A549 cells (setting [3]) it was 95.3 ± 3.4%; in experiment [1] (setting [2]), 47.8 ± 1.6%; in experiment [1] (setting [3]), 53.5 ± 3.1%.
With `CC1(C)Cc2c(cc(C(C)(C)C)c(O)c2C(C)(C)C)O1` [Compound 2, 4,6-di-t-butyl-5-hydroxy-2,2-dimethyl-2,3-dihydrobenzofuran], the inhibition at 3 µM with human A549 cells (setting [2]) worked out at 0.5 ± 1.3%; with human A549 cells (setting [3]) it was 16.9 ± 10.5%; in experiment [1] (setting [2]), 32.8 ± 2.9%; in experiment [1] (setting [3]), 71.1 ± 1.3%. In addition, the inhibition at 30 µM came out at 99.5 ± 1.1% with human A549 cells (setting [2]), 100 ± 1.5% with human A549 cells (setting [3]), 27.7 ± 2.7% in experiment [1] (setting [2]) and 76.1 ± 3.4% in experiment [1] (setting [3]).
For the molecule `CC(C)(C)c1cc2c(c(C(C)(C)C)c1O)CC1(CCCC1)O2` [Compound 9, 4,6-di-t-butyl-5-hydroxy-2,3-dihydrobenzofuran-2-spiro-1′-cyclopentane], the inhibition at 3 µM was -1.6 ± 4.4% in the experiment with human A549 cells (setting [2]), -1.5 ± 4.1% in the experiment on human A549 cells (setting [3]), 3.7 ± 6.7% in experiment [1] (setting [2]) and 6.1 ± 1.1% in experiment [1] (setting [3]). Moreover, the inhibition at 30 µM in the experiment with human A549 cells (setting [2]) came out at 98.5 ± 1.8%; with human A549 cells (setting [3]), 99.2 ± 2.2%; in experiment [1] (setting [2]) it was 18.1 ± 2.3%; in experiment [1] (setting [3]), 71.1 ± 2.3%.
Take `CC(C)(C)c1cc2c(c(C(C)(C)C)c1O)CC1(CCCCC1)S2` [Compound 13, 4,6-di-t-butyl-5-hydroxy-2,3-dihydrobenzothiophene-2-spiro-1′-cyclohexane]: the inhibition at 3 µM with human A549 cells (setting [2]) is 10.8 ± 3.9%; with human A549 cells (setting [3]), 11.3 ± 3.5%; in experiment [1] (setting [2]) it was -3.4 ± 7.1%; in experiment [1] (setting [3]), -4.8 ± 2.9%. In addition, the inhibition at 30 µM with human A549 cells (setting [2]) is 98 ± 1%; in the experiment on human A549 cells (setting [3]), 97.1 ± 4.3%; in experiment [1] (setting [2]), 37.8 ± 0.7%; in experiment [1] (setting [3]), 49.2 ± 1.7%.
Turning to `CC(C)(Sc1cc(C(C)(C)C)c(O)c(C(C)(C)C)c1)Sc1cc(C(C)(C)C)c(O)c(C(C)(C)C)c1` [probucol, reference compound], the “% cell protection as a function of test compound concentration (FIG. 1)” value in the experiment on human A549 cells is “does not increase or only slowly increases”.
As to `Cc1c(C)c2c(c(C)c1O)CC[C@@](C)(CCC[C@H](C)CCC[C@H](C)CCCC(C)C)O2` [α-tocopherol, reference compound], in the experiment with human A549 cells, the “% cell protection as a function of test compound concentration (FIG. 1)” value was “does not increase or only slowly increases”.
